Test results: PubChem BioAssay (NCI)
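Tested at 5 concentrations; 48 h exposure; 96-well plates; endpoints linearly interpolated, else capped at highest concentration. Here, GI50 denotes the concentration required for 50% inhibition of growth. TGI denotes the concentration required for complete inhibition of growth.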

How the values were obtained:
Assay in all cases: NCI anticancer screen, dose series, 48 h
NCI-H23 lung = tested on: NCI-H23 lung
KM12 colon = tested on: KM12 colon
OVCAR-4 ovarian = tested on: OVCAR-4 ovarian
NCI-H460 lung = tested on: NCI-H460 lung
RPMI-8226 leukemia = tested on: RPMI-8226 leukemia
OVCAR-5 ovarian = tested on: OVCAR-5 ovarian
UACC-62 melanoma = tested on: UACC-62 melanoma
A498 renal = tested on: A498 renal
A549 NSCLC = tested on: A549 NSCLC
MCF7 breast = tested on: MCF7 breast

`O=S1(=O)OCCOS(=O)(=O)C1Cc1ccccc1` was tested, and the TGI (NCI-H23 lung) was greater than 100 µM, the TGI (KM12 colon) was greater than 100 µM and the TGI (OVCAR-4 ovarian) was greater than 100 µM. It also gave a TGI (NCI-H460 lung) greater than 100 µM, a TGI (RPMI-8226 leukemia) of 69.2 µM and a TGI (OVCAR-5 ovarian) greater than 100 µM. The TGI (UACC-62 melanoma) was greater than 100 µM, the TGI (A498 renal) was greater than 100 µM and the TGI (A549 NSCLC) was greater than 100 µM.
`COC(=O)CCC(NC(=S)N/N=C/c1ccco1)C(=O)OC` (stereo not drawn) was tested, and the TGI (NCI-H23 lung) was greater than 100 µM, the TGI (KM12 colon) was greater than 100 µM and the TGI (OVCAR-4 ovarian) was greater than 100 µM. The TGI (NCI-H460 lung) was greater than 100 µM, the TGI (OVCAR-5 ovarian) was greater than 100 µM and the TGI (UACC-62 melanoma) was greater than 100 µM. For the same compound, the TGI (A498 renal) was greater than 100 µM and the TGI (A549 NSCLC) was greater than 100 µM.
For `COC(=O)C1=CC2C(=O)OC1CC2C#N` (stereo not drawn), the TGI (NCI-H23 lung) was greater than 100 µM, the TGI (KM12 colon) was greater than 100 µM and the TGI (OVCAR-4 ovarian) was greater than 100 µM. For the same compound, the TGI (NCI-H460 lung) was greater than 100 µM, the TGI (RPMI-8226 leukemia) was greater than 100 µM and the TGI (UACC-62 melanoma) was greater than 100 µM. The TGI (A498 renal) was greater than 100 µM and the TGI (A549 NSCLC) was greater than 100 µM.
`O=C(c1ccccc1)c1cccc(C(=O)c2ccccc2)c1` gave a TGI (NCI-H23 lung) greater than 100 µM, a TGI (KM12 colon) greater than 100 µM and a TGI (OVCAR-4 ovarian) greater than 100 µM. The TGI (NCI-H460 lung) was greater than 100 µM, the TGI (RPMI-8226 leukemia) was greater than 100 µM and the TGI (UACC-62 melanoma) was greater than 100 µM. It also gave a TGI (A498 renal) greater than 100 µM and a TGI (A549 NSCLC) greater than 100 µM.
`O=C(Nc1ccc(Cl)c(Cl)c1)O/N=C\c1c(Cl)ccc([N+](=O)[O-])c1Cl` showed a GI50 (NCI-H23 lung) of 2.95 µM, a TGI (NCI-H23 lung) of 9.7 µM and a GI50 (KM12 colon) of 1.62 µM. The TGI (KM12 colon) was 3.21 µM, the GI50 (MCF7 breast) was 0.404 µM and the TGI (MCF7 breast) was 2 µM. The GI50 (OVCAR-4 ovarian) was 1.74 µM, the TGI (OVCAR-4 ovarian) was 3.14 µM and the GI50 (NCI-H460 lung) was 2.63 µM. It also gave a TGI (NCI-H460 lung) of 7.68 µM, a GI50 (RPMI-8226 leukemia) of 1.62 µM and a TGI (RPMI-8226 leukemia) of 4.3 µM. It also gave a GI50 (OVCAR-5 ovarian) of 1.86 µM, a TGI (OVCAR-5 ovarian) of 3.84 µM and a GI50 (A498 renal) of 10.6 µM. For the same compound, the TGI (A498 renal) was 22.8 µM, the GI50 (A549 NSCLC) was 2.96 µM and the TGI (A549 NSCLC) was 10.3 µM.
`CC(=O)C1C(=O)C(=O)N(c2ccccc2C(C)C)C1=O` (stereo not drawn) showed a TGI (NCI-H23 lung) greater than 100 µM, a TGI (KM12 colon) greater than 100 µM and a TGI (OVCAR-4 ovarian) greater than 100 µM. The TGI (NCI-H460 lung) was greater than 100 µM, the TGI (RPMI-8226 leukemia) was greater than 100 µM and the TGI (OVCAR-5 ovarian) was greater than 100 µM. For the same compound, the TGI (UACC-62 melanoma) was greater than 100 µM, the TGI (A498 renal) was greater than 100 µM and the TGI (A549 NSCLC) was greater than 100 µM.
`CC1=C2C(=CC(C)(C)C2O)C(=O)C(C)(O)C12CC2` (stereo not drawn) was tested, and the TGI (NCI-H23 lung) was 0.0234 µM, the TGI (KM12 colon) was 0.109 µM and the TGI (OVCAR-4 ovarian) was 0.0209 µM. The TGI (NCI-H460 lung) was 0.0412 µM, the TGI (OVCAR-5 ovarian) was 0.0433 µM and the TGI (UACC-62 melanoma) was 0.0324 µM. For the same compound, the TGI (A498 renal) was 0.0822 µM and the TGI (A549 NSCLC) was 0.277 µM.
Work on `NC(=O)c1c(NC(=O)c2ccc3c(c2)OCO3)sc2c1CCC(=O)C2` yielded a GI50 (NCI-H23 lung) of 1.32 µM, a TGI (NCI-H23 lung) of 5.64 µM and a GI50 (MCF7 breast) of 1.96 µM. For the same compound, the TGI (MCF7 breast) was greater than 100 µM, the GI50 (OVCAR-4 ovarian) was 0.494 µM and the TGI (OVCAR-4 ovarian) was 1.79 µM. For the same compound, the GI50 (RPMI-8226 leukemia) was 0.339 µM, the TGI (RPMI-8226 leukemia) was 1.6 µM and the GI50 (A549 NSCLC) was 3.44 µM. For the same compound, the TGI (A549 NSCLC) was greater than 100 µM.
Work on `C[C@]12CCC3[C@@H](CC[C@@H]4c5nonc5CC[C@]34C)C1C/C(=N/O)C2=O` (stereo partly drawn) yielded a TGI (NCI-H23 lung) greater than 100 µM, a TGI (KM12 colon) greater than 100 µM and a TGI (OVCAR-4 ovarian) greater than 100 µM. It also gave a TGI (NCI-H460 lung) greater than 100 µM, a TGI (RPMI-8226 leukemia) greater than 100 µM and a TGI (OVCAR-5 ovarian) greater than 100 µM. For the same compound, the TGI (UACC-62 melanoma) was greater than 100 µM, the TGI (A498 renal) was greater than 100 µM and the TGI (A549 NSCLC) was greater than 100 µM.
Work on `C[Si](C)(C)c1ccc(-c2sc(-c3ccc([Si](C)(C)C)s3)c3c2C[Si]2(C3)Cc3c(-c4ccc([Si](C)(C)C)s4)sc(-c4ccc([Si](C)(C)C)s4)c3C2)s1` yielded a TGI (NCI-H23 lung) greater than 100 µM, a TGI (KM12 colon) greater than 100 µM and a TGI (OVCAR-4 ovarian) greater than 100 µM. It also gave a TGI (NCI-H460 lung) greater than 100 µM, a TGI (RPMI-8226 leukemia) greater than 100 µM and a TGI (OVCAR-5 ovarian) greater than 100 µM. The TGI (UACC-62 melanoma) was greater than 100 µM and the TGI (A549 NSCLC) was greater than 100 µM.
`CCSCCCN(CCCSCC)CCCSCC` gave a TGI (NCI-H23 lung) greater than 100 µM, a TGI (KM12 colon) greater than 100 µM and a TGI (MCF7 breast) greater than 100 µM. The TGI (OVCAR-4 ovarian) was greater than 100 µM, the TGI (NCI-H460 lung) was greater than 100 µM and the TGI (OVCAR-5 ovarian) was greater than 100 µM. The TGI (UACC-62 melanoma) was greater than 100 µM and the TGI (A549 NSCLC) was greater than 100 µM.
